Assay results taken from ChEMBL document CHEMBL6083252, “Synthesis and evaluation of novel tetrahydroisoquinoline-benzo[h]chromen-4-one conjugates as dual ABCB1/CYP1B1 inhibitors for overcoming MDR in cancer” (Bioorg Med Chem, 2024).
Activity calls are given as the source filed them. The rule behind the calls is not given here.

Legend:
[1] = system: SW620/AD300; assay: Reversal of multidrug resistance in human SW620/AD300 cells assessed as reversal fold by measuring ratio of doxorubicin IC50 to doxorubicin IC50 in presence of test compound at 5 uM; assay type: functional
[2] = system: DU-145; assay: Cytotoxicity against human DU-145 cells assessed as inhibition of cell growth at 5 uM incubated for 48 hrs by CCK8 assay; assay type: functional, cell-based
[3] = system: MKN45-DDP-R (Cisplatin-resistant MKN45 cells); assay: Reversal of cisplatin resistance in human MKN45-DDP-R cells expressing CYP1B1 at 5 uM in presence of cisplatin; assay type: functional, cell-based
[4] = Reversal of drug resistance in human DOX-SW620/AD300-1B1 cells assessed as decrease in doxorubicin IC50 at 5 uM after 48 hrs in presence of doxorubicin by CCK8 assay (reference value: 64.5 +/- 30 uM); assay type: functional, cell-based; conditions: DOX-SW620/AD300-1B1, 48 h
[5] = system: SW620/AD300; assay: Downregulation of P-gp expression in human SW620/AD300 cells at 10 uM incubated for 24 hrs by immunofluorescence assay; assay type: functional, cell-based
[6] = system: SW620/AD300; assay: Reversal of multidrug resistance in human SW620/AD300 cells assessed as decrease in doxorubicin IC50 at 5 uM in presence of doxorubicin (reference value: 11.10 +/- 1.61 uM); assay type: functional, cell-based
[7] = system: SW620/AD300; assay: Downregulation of P-gp expression in human SW620/AD300 cells upto 30 uM incubated for 24 hrs by Western blotting assay; assay type: functional, cell-based
[8] = system: SW620/AD300; assay: Cytotoxicity against human SW620/AD300 cells assessed as inhibition of cell growth at 5 uM incubated for 48 hrs by CCK8 assay; assay type: functional; parameters: scale not given: the % may be the effect or the level left
[9] = system: SW-620; assay: Cytotoxicity against human SW620 cells assessed as inhibition of cell growth at 5 uM incubated for 48 hrs by CCK8 assay; assay type: functional; parameters: scale not given: the % may be the effect or the level left
[10] = Reversal of docetaxel resistance in human DU-145 cells transfected with CYP1B1 assessed as decrease in docetaxel IC50 at 5 uM (reference value: 23.5 +/- 3.04 nM); assay type: functional, cell-based
[11] = molecular target: ATP-dependent translocase ABCB1 (Homo sapiens, UniProt P08183); assay: Inhibition of P-gp in human SW620/AD300 cells assessed as increase in intracellular Rh123 accumulation at 5 uM incubated for 4 hrs by flow cytometry analysis; assay type: cell-based; conditions: sw620/ad300, 4 h
[12] = molecular target: T1, Cytochrome P450 1B1 (Homo sapiens, UniProt Q16678); assay: Inhibition of recombinant human CYP1B1 at 0.5 uM using 7-Ethoxyresorufin as substrate incubated for 35 mins in presence of NADPH by microplate reader assay; assay type: ADME; conditions: recombinant enzyme
T1 sequence (Q16678 whole entry): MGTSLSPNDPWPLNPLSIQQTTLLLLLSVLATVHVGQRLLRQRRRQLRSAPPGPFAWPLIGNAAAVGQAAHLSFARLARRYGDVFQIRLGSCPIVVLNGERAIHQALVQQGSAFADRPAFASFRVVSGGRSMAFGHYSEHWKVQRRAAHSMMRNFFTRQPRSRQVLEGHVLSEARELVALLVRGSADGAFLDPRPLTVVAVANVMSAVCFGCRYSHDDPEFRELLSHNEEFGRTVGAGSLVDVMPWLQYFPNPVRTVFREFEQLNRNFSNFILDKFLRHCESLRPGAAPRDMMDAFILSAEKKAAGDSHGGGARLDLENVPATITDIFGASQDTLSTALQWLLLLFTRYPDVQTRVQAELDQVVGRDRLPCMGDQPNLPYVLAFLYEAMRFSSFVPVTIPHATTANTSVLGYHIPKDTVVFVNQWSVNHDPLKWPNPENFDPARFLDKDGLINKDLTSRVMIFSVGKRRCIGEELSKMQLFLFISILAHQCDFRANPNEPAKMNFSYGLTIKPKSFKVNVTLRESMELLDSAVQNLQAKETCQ

Sequence of ATP-dependent translocase ABCB1 (P08183 whole entry): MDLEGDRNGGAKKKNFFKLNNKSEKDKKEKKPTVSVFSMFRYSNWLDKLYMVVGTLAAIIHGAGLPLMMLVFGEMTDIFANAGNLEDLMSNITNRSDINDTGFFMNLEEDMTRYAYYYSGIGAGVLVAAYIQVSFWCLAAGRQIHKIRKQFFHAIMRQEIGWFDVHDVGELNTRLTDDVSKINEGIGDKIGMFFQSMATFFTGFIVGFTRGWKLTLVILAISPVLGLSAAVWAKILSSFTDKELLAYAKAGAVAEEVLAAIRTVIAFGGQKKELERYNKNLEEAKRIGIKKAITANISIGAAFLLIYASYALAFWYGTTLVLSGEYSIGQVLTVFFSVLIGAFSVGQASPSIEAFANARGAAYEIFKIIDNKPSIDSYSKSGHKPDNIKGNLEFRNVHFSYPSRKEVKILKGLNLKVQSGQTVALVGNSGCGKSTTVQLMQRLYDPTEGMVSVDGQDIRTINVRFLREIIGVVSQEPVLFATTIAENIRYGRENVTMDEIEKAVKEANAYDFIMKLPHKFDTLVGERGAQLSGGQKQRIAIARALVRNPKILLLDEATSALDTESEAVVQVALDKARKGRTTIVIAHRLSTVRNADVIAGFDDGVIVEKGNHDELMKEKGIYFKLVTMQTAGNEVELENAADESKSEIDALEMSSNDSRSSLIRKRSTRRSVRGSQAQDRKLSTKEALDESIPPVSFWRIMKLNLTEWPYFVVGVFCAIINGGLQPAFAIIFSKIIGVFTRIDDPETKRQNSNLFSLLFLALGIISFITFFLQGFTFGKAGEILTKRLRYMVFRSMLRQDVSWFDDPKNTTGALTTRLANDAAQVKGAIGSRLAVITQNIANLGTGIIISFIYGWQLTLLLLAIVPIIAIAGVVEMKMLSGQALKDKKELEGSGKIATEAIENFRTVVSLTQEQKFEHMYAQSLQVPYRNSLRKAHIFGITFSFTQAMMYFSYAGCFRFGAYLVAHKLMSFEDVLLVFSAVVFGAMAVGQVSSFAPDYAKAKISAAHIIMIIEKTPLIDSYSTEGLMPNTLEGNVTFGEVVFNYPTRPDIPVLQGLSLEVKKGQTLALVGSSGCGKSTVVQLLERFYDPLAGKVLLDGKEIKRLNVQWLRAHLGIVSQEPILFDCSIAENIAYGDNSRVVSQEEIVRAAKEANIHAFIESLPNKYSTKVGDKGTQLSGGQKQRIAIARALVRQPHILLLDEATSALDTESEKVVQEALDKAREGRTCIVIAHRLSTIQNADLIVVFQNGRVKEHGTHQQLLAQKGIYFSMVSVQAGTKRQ

SMILES | Ratio IC50 [1] | Activity [2] | Activity [3] | IC50 [4] [nM] | Activity [5] | IC50 [6] [nM] | Activity [7] | Activity [8] [%] | Activity [9] [%] | IC50 [10] [nM] | inhibition (INH) [11] | inhibition (INH) [12]
COc1cc2c(cc1OC)CN(CCc1ccc(NC(=O)c3cc(=O)c4cc(OC)c5ccccc5c4o3)cc1)CC2 | 44.4 | Active; Lower Cytotoxicity Than Anf And Wk-X-36 | Active | 4700 | inactive | 250 | inactive | 17.28 | 32.77 | 5.69 | – | –
COc1cc2c(cc1OC)CN(C(=O)c1cc(=O)c3ccc4ccccc4c3o1)CC2 | 1.7 | – | – | – | – | 6500 | – | 15.57 | 8.82 | – | – | –
COc1cc2c(cc1OC)CN(CCNC(=O)c1cc(=O)c3cc(OC)c4ccccc4c3o1)CC2 | 23.6 | – | – | – | – | 470 | – | 34.64 | 28.94 | – | – | –
COc1ccc(C(=O)Nc2ccccc2C(=O)Nc2ccc(CCN3CCc4cc(OC)c(OC)cc4C3)cc2)cc1OC | 39.6 | Active; Lower Cytotoxicity Than Anf And Wk-X-38 | – | 40000 | – | 280 | – | 6.53 | 8.91 | 8.7 | Active | Active
COc1cc2c(cc1OC)CN(CCc1ccc(NC(=O)c3cc(=O)c4ccc5ccccc5c4o3)cc1)CC2 | 27.8 | – | – | – | – | 400 | – | 20.08 | 13.57 | – | – | –
COc1cc2c(cc1OC)CN(CCN1CCN(C(=O)c3cc(=O)c4ccc5ccccc5c4o3)CC1)CC2 | 16.8 | – | – | – | – | 660 | – | 15.35 | 11.06 | – | – | –
O=c1cc(-c2ccccc2)oc2c1ccc1ccccc12 [ALPHA-NAPHTHOFLAVONE] | – | Active; Lower Cytotoxicity Than Anf And Wk-X-39 | – | 2400 | – | – | – | – | – | 8.2 | – | Active
